One data set is described as follows: clinical. The note with it: human, in vivo.
The species named for a further data set is Homo sapiens. In words: Hepatic clearance in human. The note with it: in vivo.

Consider `Cc1nnc(SCC2=C(C(=O)O)N3C(=O)[C@@H](NC(=O)[C@H](O)c4ccccc4)[C@H]3SC2)s1`, for which the CL renal in the data set “clinical” was 2.4 mL/min/kg. The CL in the data set listed under Homo sapiens is 0.2 mL/min/kg. In turn, `COc1ccccc1N1CCN(CCCNc2cc(=O)n(C)c(=O)n2C)CC1` came in with a CL renal in “clinical” of 0.5 mL/min/kg. The CL in the data set filed under Homo sapiens is 2.6 mL/min/kg. `C[C@H]1O[C@H](O[C@H]2[C@H](O)[C@@H](O)[C@@H](O[C@H]3[C@H](O)[C@@H](O)C(O)O[C@@H]3CO)O[C@@H]2CO)[C@H](O)[C@@H](O)[C@@H]1N[C@H]1C=C(CO)[C@@H](O)[C@H](O)[C@H]1O` (some centres not stated) [ACARBOSE] returned a CL renal in the data set “clinical” of 2.1 mL/min/kg. In the data set filed under Homo sapiens, this molecule displayed a CL of 0.1 mL/min/kg. The molecule `C=CCN1CCCC1CNC(=O)c1cc2[nH]nnc2cc1OC` (configuration not stated) [ALIZAPRIDE] registered a CL renal in “clinical” of 5.3 mL/min/kg. The molecule also showed a CL in the data set filed under Homo sapiens of 1.3 mL/min/kg.

In turn, `CN(C)CCC=C1c2ccccc2CCc2ccccc21` [AMITRIPTYLINE] came in with a CL renal in the data set “clinical” of 0.1 mL/min/kg. The CL in the data set filed under Homo sapiens worked out at 6 mL/min/kg.

As to `Cc1cc(=O)n(-c2ccccc2)n1C` [ANTIPYRINE], in “clinical”, the CL renal amounted to 0.0243 mL/min/kg. This molecule also gave a CL in the data set listed under Homo sapiens of 0.6 mL/min/kg. As for `CNCC[C@@H](Oc1ccccc1C)c1ccccc1` [ATOMOXETINE], the CL renal in the data set “clinical” came out at 0.3 mL/min/kg. Further, the CL in the data set filed under Homo sapiens was determined as 9 mL/min/kg. In “clinical”, `O=C1CN=C(c2ccccn2)c2cc(Br)ccc2N1` [BROMAZEPAM] had a CL renal of 0.3 mL/min/kg. Also, the CL in the data set filed under Homo sapiens turned out to be 0.3 mL/min/kg.

In “clinical”, `CCCCNc1cc(C(=O)O)cc(S(N)(=O)=O)c1Oc1ccccc1` [BUMETANIDE] gave a CL renal of 1.5 mL/min/kg. The CL in the data set listed under Homo sapiens was 1 mL/min/kg.

In the data set “clinical”, `CCCCN1CCCCC1C(=O)Nc1c(C)cccc1C` (configuration not stated) [BUPIVACAINE] had a CL renal of 0.1 mL/min/kg. For the same molecule, the CL in the data set filed under Homo sapiens amounted to 4.2 mL/min/kg.

With `CS(=O)(=O)OCCCCOS(C)(=O)=O` [BUSULFAN], the CL renal in the data set “clinical” is 0.024 mL/min/kg. Further, the CL in the data set filed under Homo sapiens was found to be 2.4 mL/min/kg. Consider `Cn1c(=O)c2c(ncn2C)n(C)c1=O` [CAFFEINE], for which the CL renal in “clinical” was found to be 0.017 mL/min/kg. The CL in the data set filed under Homo sapiens stood at 1.4 mL/min/kg. In the case of `O=C(O)CCCc1ccc(N(CCCl)CCCl)cc1` [CHLORAMBUCIL], the CL renal in the data set “clinical” came to 0.028 mL/min/kg. Moreover, in the data set listed under Homo sapiens, the CL was determined as 2.8 mL/min/kg. Taken in the same sequence, the figures for `O=C(N[C@H](CO)[C@H](O)c1ccc([N+](=O)[O-])cc1)C(Cl)Cl` [CHLORAMPHENICOL] were 0.2 mL/min/kg and 2.2 mL/min/kg. `CN(C)CCC(c1ccc(Cl)cc1)c1ccccn1` (configuration not stated) [CHLORPHENIRAMINE] showed a CL renal in “clinical” of 0.4 mL/min/kg. The molecule also registered a CL in the data set filed under Homo sapiens of 2.1 mL/min/kg. For `CN(C)CCCN1c2ccccc2Sc2ccc(Cl)cc21` [CHLORPROMAZINE] the same measures were 0.2 mL/min/kg and 15.8 mL/min/kg.

As for `CCCNC(=O)NS(=O)(=O)c1ccc(Cl)cc1` [CHLORPROPAMIDE], the CL renal in the data set “clinical” stood at 0.009 mL/min/kg. Further, in the data set filed under Homo sapiens, the CL was 0.036 mL/min/kg. As for `NS(=O)(=O)c1cc(C2(O)NC(=O)c3ccccc32)ccc1Cl` (configuration not stated) [CHLORTHALIDONE], in the data set “clinical”, the CL renal stood at 1 mL/min/kg. The same molecule yielded a CL in the data set filed under Homo sapiens of 0.5 mL/min/kg. In “clinical”, `CC1=NS(=O)(=O)c2cc(Cl)ccc2N1` [DIAZOXIDE] came in with a CL renal of 0.1 mL/min/kg. As for `CC(C)(C)NC(=O)[C@H]1CC[C@H]2[C@@H]3CC[C@H]4NC(=O)C=C[C@]4(C)[C@H]3CC[C@]12C` [FINASTERIDE], the CL renal in “clinical” stood at 0.024 mL/min/kg. Molecule `CC(=O)Nc1ccc(OCC(O)CNC(C)C)cc1` (configuration not stated) [PRACTOLOL] had a CL in the data set filed under Homo sapiens of 0.3 mL/min/kg. For `CC[C@H](C)C(=O)O[C@H]1C[C@H](O)C=C2C=C[C@H](C)[C@H](CC[C@@H](O)C[C@@H](O)CC(=O)O)[C@H]21` [PRAVASTATIN], in the data set filed under Homo sapiens, the CL stood at 7.7 mL/min/kg. In the data set listed under Homo sapiens, `CC(C)NCC(O)COc1cccc2ccccc12` (configuration not stated) [PROPRANOLOL] displayed a CL of 10.8 mL/min/kg. In the data set listed under Homo sapiens, `CN(C)C(=O)Oc1ccc[n+](C)c1` [PYRIDOSTIGMINE] displayed a CL of 2.4 mL/min/kg.

Regarding `COCCCOc1ccnc(C[S+]([O-])c2nc3ccccc3[nH]2)c1C` (configuration not stated) [RABEPRAZOLE], in the data set filed under Homo sapiens, the CL is 4 mL/min/kg. In the case of `CO[C@H]1/C=C/O[C@@]2(C)Oc3c(C)c(O)c4c(O)c(c(/C=N/N5CCN(C)CC5)c(O)c4c3C2=O)NC(=O)/C(C)=C\C=C\[C@H](C)[C@H](O)[C@@H](C)[C@@H](O)[C@@H](C)[C@H](OC(C)=O)[C@@H]1C` [RIFAMPIN], the CL in the data set filed under Homo sapiens came out at 1.3 mL/min/kg. On the same count and under the same terms, for `O=P(O)(O)C(O)(Cc1cccnc1)P(=O)(O)O` [RISEDRONIC ACID] the value was 0.2 mL/min/kg. Turning to `CN(CCOc1ccc(CC2SC(=O)NC2=O)cc1)c1ccccn1` (configuration not stated) [ROSIGLITAZONE], in the data set listed under Homo sapiens, the CL stood at 0.7 mL/min/kg. Regarding `C#CCN(C)[C@H](C)Cc1ccccc1` [SELEGILINE], the CL in the data set filed under Homo sapiens turned out to be 19.8 mL/min/kg.

In the data set filed under Homo sapiens, `CCN(CC)CCNC(=O)c1ccc(NS(C)(=O)=O)cc1` [SEMATILIDE] registered a CL of 0.2 mL/min/kg. For `N[C@@H]1CN(c2c(F)cc3c(=O)c(C(=O)O)cn([C@@H]4C[C@@H]4F)c3c2Cl)CC12CC2` [SITAFLOXACIN ANHYDROUS], the CL in the data set filed under Homo sapiens is 0.9 mL/min/kg. In the data set filed under Homo sapiens, `N[C@@H](CC(=O)N1CCn2c(nnc2C(F)(F)F)C1)Cc1cc(F)c(F)cc1F` [SITAGLIPTIN] gave a CL of 1.3 mL/min/kg. Same read-out and setting: for `C=CC[C@@H]1/C=C(\C)C[C@H](C)C[C@H](OC)[C@H]2O[C@@](O)(C(=O)C(=O)N3CCCC[C@H]3C(=O)O[C@H](/C(C)=C/[C@@H]3CC[C@@H](O)[C@H](OC)C3)[C@H](C)[C@@H](O)CC1=O)[C@H](C)C[C@@H]2OC` [TACROLIMUS ANHYDROUS] the value was 0.7 mL/min/kg; for `CC(C)(C)NCC(O)COc1ccc(NC(=O)NC2CCCCC2)cc1` (configuration not stated) [TALINOLOL], 2.3 mL/min/kg. Turning to `CC(C)(C)NCC(O)c1cc(O)cc(O)c1` (configuration not stated) [TERBUTALINE], the CL in the data set filed under Homo sapiens was 1.2 mL/min/kg. `CN(C)[C@@H]1C(O)=C(C(N)=O)C(=O)[C@@]2(O)C(O)=C3C(=O)c4c(O)cccc4[C@@](C)(O)[C@H]3C[C@@H]12` [TETRACYCLINE]: the CL in the data set filed under Homo sapiens was 0.6 mL/min/kg.

For `CC(C)(C)NC[C@H](O)COc1nsnc1N1CCOCC1` [TIMOLOL], the CL in the data set filed under Homo sapiens worked out at 7.1 mL/min/kg. On the same count and under the same terms, the same measure for `Cc1cccc(C)c1NC(=O)C(C)N` (configuration not stated) [TOCAINIDE]: 1.4 mL/min/kg.

Take `Cc1ccc(O)c([C@H](CCN(C(C)C)C(C)C)c2ccccc2)c1` [TOLTERODINE]: the CL in the data set filed under Homo sapiens was found to be 8.4 mL/min/kg. In turn, `CCCC(CCC)C(=O)O` [VALPROIC ACID] yielded a CL renal in the data set “clinical” of 0.0029 mL/min/kg. Molecule `CN[C@H](CC(C)C)C(=O)N[C@H]1C(=O)N[C@@H](CC(N)=O)C(=O)N[C@H]2C(=O)N[C@H]3C(=O)N[C@H](C(=O)N[C@H](C(=O)O)c4cc(O)cc(O)c4-c4cc3ccc4O)[C@H](O)c3ccc(c(Cl)c3)Oc3cc2cc(c3O[C@@H]2O[C@H](CO)[C@@H](O)[C@H](O)[C@H]2O[C@H]2C[C@](C)(N)[C@H](O)[C@H](C)O2)Oc2ccc(cc2Cl)[C@H]1O` [VANCOMYCIN] registered a CL in the data set filed under Homo sapiens of 0.3 mL/min/kg. In turn, `CC[C@]1(O)C[C@@H]2CN(CCc3c([nH]c4ccccc34)[C@@](C(=O)OC)(c3cc4c(cc3OC)N(C)[C@H]3[C@@](O)(C(=O)OC)[C@H](OC(C)=O)[C@]5(CC)C=CCN6CC[C@]43[C@@H]65)C2)C1` [VINBLASTINE] returned a CL in the data set filed under Homo sapiens of 0.5 mL/min/kg. For the molecule `CN(C)CCc1c[nH]c2ccc(C[C@H]3COC(=O)N3)cc12` [ZOLMITRIPTAN], the CL in the data set listed under Homo sapiens worked out at 4.5 mL/min/kg. In the data set filed under Homo sapiens, `CN1CCN(C(=O)OC2c3nccnc3C(=O)N2c2ccc(Cl)cn2)CC1` (configuration not stated) [ZOPICLONE] came in with a CL of 3.2 mL/min/kg.

These data come from ChEMBL document CHEMBL1156824, “Physicochemical space for optimum oral bioavailability: contribution of human intestinal absorption and first-pass elimination” (J Med Chem, 2010).
